# From paper PMC11167521, “Inhibition of neuraminidase-1 sialidase activity by interfering peptides impairs insulin receptor activity in vitro and glucose homeostasis in vivo” (The Journal of Biological Chemistry, 2024)
# No end group written: not given here.
# Key:
# [1] = tested on: COS-7 cells overexpressing IR (COS-7^IR); experiment: MTT cell viability assay, COS-7 cells overexpressing IR; type: cell-based, African green monkey; conditions: peptide 0.1 μM in LDS micelles, 3 h and 24 h, compared to control without treatment, n = 3-4
# Description: (§1) The concentration of 0.1 μM and two incubation times, 3 h (Fig. S1, A and C) and 24 h (Fig. S1, B and D) have been tested. […] The choice of this concentration was based on the previous study by Albrecht et al. ([31]).
# (§2) HepG2 cell line and COS-7^IR cells were, respectively, harvested in 96-well plates at a cell density of 80,000 cells/well and 10,000 cells/well. After 24 h, cells were incubated with IntPep-RKR or mutIntPep-RKR at 0.1 μM or only with LDS micelles during 3 h or 24 h. Then, the medium has been removed and cells were incubated in the dark during 4 h at 37 °C with a 3-(4-5-dimethylthiazol-2-yl) -2,5-diphenyltetrazolium bromide solution (MTT, Sigma, 5 mg/ml) diluted in PBS (one-sixth v/v). The medium was removed, and 100 μl of dimethyl sulfoxide were added in each well. Cell viability was measured at 570 nm with Infinite F200 Pro (TECAN) hardware using Magellan software (https://lifesciences.tecan.com/software-magellan?p=tab--2).
# (§3) HepG2 cells (A,B) and COS-7 cells
# (§4) overexpressing IR (C,D) were incubated with mutIntPep-RKR, IntPep-RKR (0.1 µm) or LDS
# (§5) micelles for 3h (A,C) or for 24h (B,D).
# (§6) ZS equipment (Malvern Panalytical, UK). Water was used as a reference dispersing medium.
# (§7) Micelles sizes were expressed in volume (as the diameter of a theorical sphere in nanometer),
# HepG2 cells = experiment: MTT cell viability assay, HepG2 cells; type: cell-based, human; conditions: peptide 0.1 μM in LDS micelles, 3 h and 24 h, compared to control without treatment, n = 3-4
# Description: as §1, §2, §3, §4, §5, §6, §7
# membrane NEU-1 [2] = target: T1, membrane NEU-1 (Homo sapiens, UniProt Q99519); experiment: Membrane NEU-1 sialidase activity, COS-7^IR/NEU-1 crude membranes (Muf-NANA); type: biochemical; design: host or cells: COS-7 (ATCC CRL-1651) or COS-7^IR, transient transfection, 72 h; conditions: COS-7^IR/NEU-1 crude membrane, 0.1 μM, 15 min, compared to mutIntPep-RKR, n = 4-5, mean ± SEM
# Text: (§8) Plasmid encoding human IR was a gift from Dr Tarik Issad (Institut Cochin, Paris, France) and plasmid encoding human PPCA protein was provided by Pr. Alessandra d’Azzo (St Jude Children's Research Hospital, Memphis, USA). These two plasmids have been previously described ([50], [51]). Plasmid encoding human NEU-1 was purchased from ImaGenes GmbH. For cell transfections, JetPEI DNA transfection reagent was purchased from Polyplus transfection. […] HepG2 cells were harvested in 1 g/L glucose Dulbecco’s modified Eagle’s medium supplemented with 10% heat inactivated fetal bovine serum, 100 units/ml penicillin, 0,1 mg/ml streptomycin at 37 °C in a humidified atmosphere at 5% CO2. COS-7 cells were maintained in culture in 4.5 g/L glucose Dulbecco’s modified Eagle’s medium supplemented with 10% heat-inactivated fetal bovine serum, 100 units/ml penicillin, 0.1 mg/ml streptomycin at 37 °C in a humidified atmosphere at 5% CO2. COS-7 cells have been stably transfected with plasmid encoding human IR. Geneticin selection (400 μg/ml) has been made after transfection to obtain a stable cell line overexpressing IR named COS-7^IR. Geneticin (80 μg/ml) were added in the completed medium to maintain this cell line. […]
# membrane NEU-1 dimers = target: T2, membrane NEU-1 dimers (Homo sapiens, UniProt Q99519); experiment: NEU-1 dimerization in HepG2 cell membrane extracts (Western blot); type: biochemical; conditions: 0.1 μM, n = 4, mean ± SEM
# T2 construct: HepG2 endogenously expresses IR and NEU-1; endogenous in cells; host or cells: HepG2 (ATCC HB-8065)
# Description: HepG2 cells grown in 75 cm^2 flasks at 80% of confluence were washed twice with cold PBS and resuspended with 1 ml cold TEM buffer (75 mM Tris, 2 mM EDTA, 12 mM MgCl2, at pH 7,5) extemporaneously completed with 1% (v/v) protease inhibitor cocktail, 10 mM NaF, and 2 mM Na3VO4. After sonication, samples were centrifuged at 600g for 10 min at 4 °C to remove unlysed cells and nuclei. Supernatants were collected and centrifuged at 20,000g for 45 min at 4 °C. Crude membrane-containing pellets were then resuspended in TEM buffer supplemented with 1% (w/v) CHAPS {3-[(3-cholamidopropyl) dimethylammonio]-1-propanesulfonate} (Sigma-Aldrich). Cell membranes were then incubated with peptides at 0.1 μM and solubilized for 3 h at 4 °C under gentle end-over-end mixing. Supernatants were recovered after a centrifugation step (20,000g, 45 min, and 4 °C). These samples were then used for Western blot analyzes.
# Protein samples were diluted in Laemmli buffer (500 mM Tris, 10% (w/v) SDS, 20% saccharose (w/v), 0.5% (w/v) bromophenol blue, 10% (v/v) β-mercaptoethanol, pH 6.8) and heated for 5 min at 100 °C. […]
# Chemiluminescent protein detection was done by using ECL Prime Kit (GE Healthcare, Orsay, France). […] Quantification of bands intensity has been made using Image Studio Lite software (https://www.licor.com/bio/image-studio/).
# membrane NEU-1 [3] = target: T1, membrane NEU-1; experiment: Membrane NEU-1 sialidase activity, HepG2 crude membranes (Muf-NANA); type: biochemical; conditions: 0.1 μM, 15 min incubation, compared to mutIntPep-RKR at same concentration, n = 4-5, mean ± SEM
# Description: HepG2 cells grown in 75 cm^2 flasks and COS-7 cell lines grown in 10 cm Petri dishes were washed twice with cold PBS and resuspended with 1 ml cold TEM buffer extemporaneously completed with 1% (v/v) protease inhibitor cocktail, 10 mM NaF, 2 mM Na3VO4. After sonication, samples were centrifuged at 600g for 10 min at 4 °C to remove nonlysed cells and nuclei. Supernatants were extracted and centrifuged at 20,000g for 45 min at 4 °C. Crude membrane-containing pellets were then resuspended in 400 μl Mes buffer (2-(N-morpholino) ethanesulfonic acid hydrate, 20 mM, pH 4.5). Protein concentration was then determined by bicinchoninic acid assay to measure sialidase activity from 50 μg of crude membrane proteins. Samples were incubated with peptides for 15 min on ice. Muf-NANA (2′-(4-MethylUmbelliFeryl)-alpha-D-N-AcetylNeuraminic Acid) (Biosynth) at a concentration of 400 μM was then added and incubated with samples for 2 h at 37 °C in the dark. The reaction was then stopped by adding Na2CO3 (Merck). A total of 150 μl of each sample were finally transferred in black 96 well plates. Emitted fluorescence was measured with Infinite F200 Pro (TECAN) hardware and Magellan software (excitation: 360 nm/emission: 465 nm) (https://lifesciences.tecan.com/software-magellan?p=tab--2).
# membrane NEU-1 [4] = target: T1, membrane NEU-1; experiment: Membrane NEU-1 sialidase activity, COS-7^NEU-1 crude membranes (Muf-NANA); type: biochemical; design: host or cells: COS-7 (ATCC CRL-1651) or COS-7^IR, transient transfection, 72 h; conditions: COS-7^NEU-1 crude membrane, 0.1 μM, 15 min, compared to mutIntPep-RKR, n = 4-5, mean ± SEM
# Text: as §8
# [5] = target: T3, membrane NEU-1 in HepG2 cells (Homo sapiens, UniProt Q99519); experiment: Colocalization of fluorescent peptide with NEU-1 by confocal microscopy; type: cell-based; conditions: fixed HepG2 cells, 0.1 μM in LDS micelles, 1 h, n = 3
# T3 construct: HepG2 endogenously expresses IR and NEU-1; endogenous in cells; host or cells: HepG2 (ATCC HB-8065)
# Description: IntPeps coupled with FITC and solubilized in LDS micelles have been incubated at 0.1 μM for 1 h with fixed HepG2 cells.
# HepG2 cells were seeded onto coverslips in 24-well plates at 50,000 cells/well. After 24 h, cells were fixed with paraformaldehyde 1% (Euromedex) for 5 min followed by a second incubation with paraformaldehyde 2% for 10 min at room temperature (RT). Cells were washed twice for 5 min with PBS and permeabilized with Triton 0.2% during 5 min at RT. A total of 3% bovine serum albumin (BSA) was disposed in each well for 1 h at RT after three washes with PBS for 5 min. Cells were then incubated with NEU-1 mouse monoclonal antibody (1/200 in PBS with 3% BSA) (Santa Cruz Biotechnology) for 2 h at RT. Then, this solution was removed, and the cells were incubated with anti-mouse secondary antibody coupled with Alexa Fluor 568 (1/1000 in PBS with 3% BSA) (Invitrogen) for 2 h at RT in the dark. After washes, cells were incubated with IntPeps coupled with FITC (0.1 μM) or with FITC alone (0.1 μM) at RT in the dark. Coverslips were then mounted in a medium containing 4′,6-diamidino-2-phenylindole (Prolong gold, antifade, Invitrogen). Slides were finally observed using confocal microscopy (Zeiss LSM 710) and featured slices were analyzed with Image J software (https://imagej.net/ij/download.html).
# C57Bl/6J mice [6] = experiment: Systemic and cellular toxicity, plasma AST, CRP and LDH in mice; type: in vivo, mouse
# Description: (§9) Experiments procedures were evaluated by research ethics committee of the University of Reims Champagne-Ardenne and approved by the French Ministry of Higher Education, Research and Innovation (APAFis #33891-2021111016547019). Five C57Bl/6J male and five female mice (Janvier Labs), aged 6 weeks, were maintained in a 12/12-h light/dark cycle and in a temperature and humidity-controlled environment. All mice had ad libitum access to a diet without chlorophyll (#U8959, SAFE diet) and water during the experimental period. Mice weight was measured twice per week throughout treatment. Weight gain or loss was then calculated and normalized to the weight measurement of the first week. The food intake was evaluated with weight feeders during the last week of treatment and every day. This weight was then divided by the number of mice in each cage.
# (§10) Treatments have been started when mice were aged 8 weeks. Mice were under diet without chlorophyll (#U8959, SAFE diet) 2 weeks before the beginning of treatments to minimize the background noise of fluorescence measurements. LDS micelles or Cy5-IntPep-RKR were prepared as described previously and injected intraperitoneally at 100 μg/kg twice per week (100 μl).
# Blood samples were collected before and after 8-weeks treatment, respectively, with LDS micelles or Cy5-IntPep-RKR by retroorbital and intracardiac pathway with sterile heparin Pasteur pipets and sterile needle in lithium heparin MiniCollect tubes (Greiner Bio-One). Animals were under isoflurane anesthesia during blood recovery. After centrifugation (3000 rpm, 10 min), plasma samples were then recovered in 1.5 ml eppendorfs and conserved at −20 °C. Finally, these samples were sent to the Institut Clinique de la Souris (Illkirch, France) to quantify several parameters as AST, CRP, and LDH. Graphics represent the percentages of observed variation between values obtained before and after 8-weeks treatment with LDS micelles or Cy5-IntPep-RKR.
# C57Bl/6J mice [7] = experiment: Glycemia measurement in mice; type: in vivo, mouse
# Description: as §10
# A slight incision at tail was made to collect a drop of blood (<10 μl). The nonfasted blood glucose was then measured under anesthesia for all groups with Contour Plus device and reactive strips before injection and 30 min after injection of LDS micelles or Cy5-IntPep-RKR at 100 μg/kg. Data were then normalized for each group by comparison with glycemia value before injection.
# C57Bl/6J mice [8] = experiment: Biodistribution of fluorescent peptide in mice (fluorescence molecular tomography); type: in vivo, mouse; conditions: 100 μg/kg i.p. twice per week
# Description: as §9, §10
# Fluorescence measurements in entire body were realized in 13 mm cassette under isoflurane anesthesia (with PerkinElmer fluorescence molecular tomography 4000) at first, second, fifth, seventh, and eighth weeks of the treatment and 15 min after injection of fluorescent peptides. Organs were collected at the end of the treatment and placed on another cassette to measure their fluorescence with the same device. To remove the potential autofluorescence of certain organs, organ fluorescence of mice receiving LDS micelle injection (twice per week at 100 μg/kg) was measured and subtracted to those of mice receiving Cy5-IntPep-RKR. The measurement of organ fluorescence has been converted in ng of peptides per gram of organ and represented in % of peptides per organ. The software TrueQuant has been used for analyzes (https://www.perkinelmer.com.cn/lab-products-and-services/resources/in-vivo-imaging-software-downloads.html?_ga=2.29909951.1041849854.1637318373-1604795059.1637318373). The geometric size of the region of interest (ROI) background was between 40 and 41.5 mm^3, and one of the ROI was between 7900 and 8100 mm^3 in the entire body. The geometric size of the ROI background was the same in organ per organ biodistribution and one of the ROI for each organ approximatively as followed: the adipose tissue (1825 mm^3), the spleen (1095 mm^3), the stomach (2555 mm^3), the bladder (594 mm^3), the muscle (1142 mm^3), the liver (3379 mm^3), and the kidneys (1946 mm^3).
# C57Bl/6J mice [9] = experiment: Weight and food intake during 8 weeks of treatment in mice; type: in vivo, mouse; conditions: compared to LDS micelles
# Description: as §9, §10
# [10] = 100 μg/kg i.p. twice per week for 8 weeks, versus LDS micelles group
# [11] = after 8 weeks, organ fluorescence, n = 10, mean ± SEM
substance,measurement,setting,value
ELVDPVVAAGAVVTSSGIVFFSRKR [IntPep-RKR],"cell toxicity (cell viability, MTT)",[1],do not induce cell toxicity
same,"cell toxicity (cell viability, MTT)",HepG2 cells,do not induce cell toxicity
same,decrease of membrane NEU-1 sialidase activity,membrane NEU-1 [2],18.1% ± 2.9%
same,decrease of the formation of NEU-1 dimers,"membrane NEU-1 dimers; HepG2 cell membrane extracts, 3 h at 4 °C, compared to mutIntPep-RKR",30.7% ± 5.6%
same,decrease of the ratio NEU-1 dimers/NEU-1 monomers,"membrane NEU-1 dimers; HepG2 cell membranes, normalized to mutIntPep-RKR condition",42.4% ± 7.3%
same,decrease of membrane NEU-1 sialidase activity,membrane NEU-1 [3],32.6% ± 5.7%
same,decrease of membrane NEU-1 sialidase activity,membrane NEU-1 [4],35.3% ± 7.6%
ELVDPVVVAIAVVTSSIIAFFSRKR [mutIntPep-RKR],"cell toxicity (cell viability, MTT)",[1],do not induce cell toxicity
same,"cell toxicity (cell viability, MTT)",HepG2 cells,do not induce cell toxicity
"FITC-LC- E312LVDPVVAAGAVVTSSGIVFFS333-RKR [FITC-IntPep-RKR, IntPeps coupled with FITC and solubilized in LDS micelles]",colocalization with NEU-1,[5],colocalization areas at the plasma membrane
"H-C(Cy5)-E312LVDPVVAAGAVVTSSGIVFFSRKR333-NH2 [Cy5-IntPep-RKR, IntPeps coupled with cyanine-5, injected in LDS micelles]",plasma aspartate transaminase (AST) activity,C57Bl/6J mice [6]; [10],No significant difference
same,plasma expression level of C-reactive protein (CRP),C57Bl/6J mice [6]; [10],No significant difference
same,plasma lactate dehydrogenase (LDH) activity,C57Bl/6J mice [6]; [10],No significant difference
same,decrease of CRP level,"C57Bl/6J mice [6]; 100 μg/kg i.p. twice per week, comparing data before and after 8-week treatment, mean ± SEM",21.11% ± 3.1%
same,toxicity and inflammation,"C57Bl/6J mice [6]; 8-week treatment, two injections per week at 100 μg/kg",did not induce toxicity and inflammation
same,increase of blood glucose after peptide injection,"C57Bl/6J mice [7]; C57Bl/6J mice without fasting, isoflurane anesthesia, 30 min after i.p. injection at 100 μg/kg, compared to before injection, n = 10, mean ± SEM",about 44.5% ± 10.4%
same,"blood glucose level, mice fasted for 4 h or fed","C57Bl/6J mice [7]; C57Bl/6J mice, 8 weeks of treatment at 100 μg/kg twice per week, versus LDS micelles group, n = 10 per group",no difference of blood glucose level
same,whole body fluorescence distribution,"C57Bl/6J mice [8]; 15 min after injection, weeks 1,2,5,7 and 8",well distributed in the whole organism
same,"% of peptides per organ, white adipose tissue","C57Bl/6J mice [8]; after 8 weeks, organ fluorescence minus autofluorescence, n = 10, mean ± SEM",29.2% ± 9%
same,"% of peptides per organ, bladder",C57Bl/6J mice [8]; [11],18.52% ± 5.7%
same,"% of peptides per organ, kidneys",C57Bl/6J mice [8]; [11],5.33% ± 2.1%
same,"% of peptides per organ, liver",C57Bl/6J mice [8]; [11],6.13% ± 2.5%
same,"% of peptides per organ, muscle",C57Bl/6J mice [8]; [11],17 ± 4.25%
same,"% of peptides per organ, spleen",C57Bl/6J mice [8]; [11],17.05% ± 3.7%
same,weight,"C57Bl/6J mice [9]; 100 μg/kg i.p. twice per week, 8 weeks, n = 10 per group",do not induce modification of weight
same,food intake,"C57Bl/6J mice [9]; last week of 8-week treatment, n = 6",do not impair the food intake
